Experimental data reported in patent publication US8653074B2, “Substituted sodium 1H-pyrazol-5-olate” (Bayer Intellectual Property GmbH, priority 2010, dated 2014).

Tests used:
[1] = Vapour adsorption and vapour desorption (moisture sorption isotherm); format: physicochemical; conditions: for Adsorption / Desorption: 25° C.
Procedure: Vapour Adsorption and Vapour Desorption:
The moisture sorption isotherm was recorded using a Dynamic Vapour Sorption Analyzer IGA Sorp from Hiden Analytical. The measuring temperature was 25° C. There was no sample preparation.

Solubility in water = format: physicochemical; conditions: for solubility thermodynamic at 16 h: thermodynamic from solid, water, 25° C., stirred 16 hours, HPLC
Procedure: Method: Saturated solutions of the test substance were prepared by stirring a suspension in water at 25° C. for 16 hours. The suspensions obtained were then filtered, and the content in the filtrate was determined by HPLC.

[2] = Vapour adsorption and vapour desorption (moisture sorption isotherm); format: physicochemical; conditions: customary environmental conditions (20-35° C., atmospheric pressure)
EGLN2/PHD1 = biological target: T1, EGLN2/PHD1 (Homo sapiens, UniProt Q96KS0); assay: Inhibition of the activity of HIF prolyl hydroxylase (VBC complex binding test); format: biochemical; conditions: mean for EGLN2/PHD1
T1 construct: host or cells: cell lysate
T1 sequence (Q96KS0 whole entry): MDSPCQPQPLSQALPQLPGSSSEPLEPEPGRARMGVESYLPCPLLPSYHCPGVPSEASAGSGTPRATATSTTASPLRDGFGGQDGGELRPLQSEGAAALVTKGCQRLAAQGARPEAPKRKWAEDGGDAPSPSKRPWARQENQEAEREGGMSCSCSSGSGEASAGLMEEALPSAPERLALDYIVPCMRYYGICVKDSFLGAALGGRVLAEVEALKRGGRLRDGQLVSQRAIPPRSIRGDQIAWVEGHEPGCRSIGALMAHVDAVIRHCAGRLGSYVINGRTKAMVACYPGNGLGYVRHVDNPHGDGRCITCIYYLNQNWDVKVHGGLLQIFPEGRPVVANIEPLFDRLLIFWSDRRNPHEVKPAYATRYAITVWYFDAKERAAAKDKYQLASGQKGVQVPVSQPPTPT
Procedure: The test is carried out as described [Oehme F., Jonghaus W., Narouz-Ott L., Huetter J., Flamme I., Anal. Biochem. 330 (1), 74-80 (2004)]:
A clear 96-well microtiter plate coated with NeutrAvidin HBC (Pierce) is incubated with blocker casein for 30 minutes. The plate is then washed three times with 200 μl each time of wash buffer (50 mM Tris, pH 7.5, 100 mM NaCl, 10% (v/v) blocker casein, 0.05% (v/v) Tween 20) per well. The peptide biotin-[sequence] (Eurogentec, 4102 Seraing, Belgium) is added in a concentration of 400 nM in 100 μl wash buffer. This peptide serves as a substrate for the prolyl hydroxylation and is bonded to the microtiter plate. After incubation for 60 minutes, the plate is washed three times with wash buffer, incubated with 1 mM biotin in blocker casein for 30 minutes and then washed again three times with wash buffer.
To carry out the prolyl hydroxylase reaction, the peptide substrate bonded to the plate is incubated with a cell lysate containing prolyl hydroxylase for 1 to 60 minutes. […]

EGLN1/PHD2 = EGLN1/PHD2 (Homo sapiens, UniProt Q9GZT9); assay: biochemical
EGLN1/PHD2, sequence (Q9GZT9 whole entry): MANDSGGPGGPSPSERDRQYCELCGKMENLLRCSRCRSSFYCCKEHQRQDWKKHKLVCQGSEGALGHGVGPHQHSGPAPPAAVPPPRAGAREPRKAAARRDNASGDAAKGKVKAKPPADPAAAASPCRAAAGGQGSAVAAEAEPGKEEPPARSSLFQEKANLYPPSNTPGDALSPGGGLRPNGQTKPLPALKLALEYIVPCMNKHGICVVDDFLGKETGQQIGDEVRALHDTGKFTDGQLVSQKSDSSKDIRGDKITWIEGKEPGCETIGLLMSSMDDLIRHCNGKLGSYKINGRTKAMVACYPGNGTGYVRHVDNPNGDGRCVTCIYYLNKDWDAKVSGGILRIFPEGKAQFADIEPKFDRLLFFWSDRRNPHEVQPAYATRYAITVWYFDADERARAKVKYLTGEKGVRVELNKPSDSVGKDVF
Procedure: Hydroxylated HIF bonds specifically to the von Hippel-Lindau protein-elongin B-elongin C complex (VBC complex). This interaction occurs only if HIF is hydroxylated on a conserved prolyl radical. It is the basis for the biochemical determination of HIF prolyl hydroxylase activity.
A clear 96-well microtiter plate coated with NeutrAvidin HBC (Pierce) is incubated with blocker casein for 30 minutes. The plate is then washed three times with 200 μl each time of wash buffer (50 mM Tris, pH 7.5, 100 mM NaCl, 10% (v/v) blocker casein, 0.05% (v/v) Tween 20) per well. […] This peptide serves as a substrate for the prolyl hydroxylation and is bonded to the microtiter plate. After incubation for 60 minutes, the plate is washed three times with wash buffer, incubated with 1 mM biotin in blocker casein for 30 minutes and then washed again three times with wash buffer. […]
For quantitative determination of the prolyl hydroxylation, a fusion protein which contains both thioredoxin from E. coli and the VBC complex in 80 μl bonding buffer (50 mM Tris, pH 7.5, 120 mM NaCl) is added. […] The amount of bonded VBC complex is determined by measurement of the optical density at 450 nm. […]
Alternatively, a VBC complex coupled to europium (Perkin Elmer) can be used for detection of the prolyl hydroxylation. In this case, the amount of bonded VBC complex is determined by the fluorescence with respect to time.

[3] = system: recombinant A549 cell line with luciferase reporter under hypoxia-responsible elements; assay: Cellular, functional in vitro test (luciferase reporter under hypoxia-responsible elements); format: cell-based; conditions: Homo sapiens
From the text: 1.b) Cellular, Functional in vitro Test:
The activity of the compounds according to the invention is quantified with the aid of a recombinant cell line. The cell is originally derived from a human lung carcinoma cell line (A549, ATCC: American Type Culture Collection, Manassas, Va. 20108, USA). The test cell line is transfected in a stable manner with a vector which contains the reporter gene of Photinus pyralis luciferase (called luciferase in the following) under the control of an artificial minimal promoter. […] Under the effect of hypoxia (e.g. culturing in the presence of 1% oxygen for 24 hours) or under the action of non-selective dioxygenase inhibitors (e.g. desferroxamine in a concentration of 100 μM, cobalt chloride in a concentration of 100 μM or N-oxalylglycine diethyl ester in a concentration of 1 mM), the test cell line produces luciferase, which can be detected and quantified with the aid of suitable bioluminescence reagents (e.g. Steady-Glo® Luciferase Assay System, Promega Corporation, Madison, Wis. 53711, USA) and a suitable luminometer.
On the day before the test, the cells are plated out in an exactly calculated amount of culture medium (DMEM, 10% FCS, 2 mM glutamine) in 384- or 1,536-well microtiter plates and kept in a cell incubator (96% atmospheric humidity, 5% v/v CO2, 37° C.). […]

Adsorption ([1]; 0% rh) [%] | Adsorption ([1]; 10% rh) [%] | Desorption ([1]; 10% rh) [%] | Adsorption ([1]; 20% rh) [%] | Desorption ([1]; 20% rh) [%] | Adsorption ([1]; 30% rh) [%] | Desorption ([1]; 30% rh) [%] | Adsorption ([1]; 40% rh) [%] | Desorption ([1]; 40% rh) [%] | Adsorption ([1]; 50% rh) [%] | Desorption ([1]; 50% rh) [%] | Adsorption ([1]; 60% rh) [%] | Desorption ([1]; 60% rh) [%] | Adsorption ([1]; 70% rh) [%] | Desorption ([1]; 70% rh) [%] | Adsorption ([1]; 80% rh) [%] | Desorption ([1]; 80% rh) [%] | Adsorption ([1]; 90% rh) [%] | Desorption ([1]; 90% rh) [%] | solubility thermodynamic at 16 h (Solubility in water) [mg/mL] | SMILES | further results
0.1 | 0.2 | 0.1 | 0.3 | 0.2 | 4.8 | 4.7 | 5.1 | 5.2 | 5.3 | 5.4 | 5.4 | 5.6 | 5.6 | 5.6 | 5.7 | 5.7 | 5.9 | 5.9 | 0.143 | Oc1c(-n2ccnn2)cnn1-c1cc(N2CCOCC2)ncn1 [Compound of the formula (I), 1-[6-(morpholin-4-yl)pyrimidin-4-yl]-4-(1H-1,2,3-triazol-1-yl)-1H-pyrazol-5-ol, reference compound] | Desorption ([1]; 5% rh (printed in the 0% rh line)): 0.1% (5% rh); uptake of water ([1]; 20-35° C., atmospheric pressure, relative atmospheric humidity above 20% rh): up to 6 % by weight; hygroscopicity [2]: hygroscopic
0 | 0 | 0 | 0.1 | 0 | 0.1 | 0.1 | 0.2 | 0.2 | 0.2 | 0.3 | 0.2 | 0.3 | 0.4 | 0.4 | 0.4 | 0.5 | 0.8 | 0.8 | 28 | [Na+].[O-]c1c(-n2ccnn2)cnn1-c1cc(N2CCOCC2)ncn1 [Compound of the formula (II), sodium 1-[6-(morpholin-4-yl)pyrimidin-4-yl]-4-(1H-1,2,3-triazol-1-yl)-1H-pyrazol-5-olate] | IC50 (EGLN2/PHD1): 470 nM; IC50 (EGLN1/PHD2): 140 nM; EC50 [3]: 7 nM; water content [1]: less than 0.5 % by weight; Desorption ([1]; 0% rh): 0%; change of water content ([1]; 20-35° C., atmospheric pressure, atmospheric humidity of up to 90% rh): less than 0.5 % by weight; solubility in water compared to the compound of the formula (I) (Solubility in water): higher solubility in water; hygroscopicity [2]: not hygroscopic
